Key:
[1] = Antiproliferative activity against VEGF-stimulated HUVEC cells assessed as reduction in cell viability at 2 nM preincubated for 1 hr followed by addition of VEGF measured after 72 hrs by MTT assay; format: functional; details: Homo sapiens
[2] = Antiproliferative activity against VEGF-stimulated HUVEC cells assessed as reduction in cell viability at 0.5 nM preincubated for 1 hr followed by addition of VEGF measured after 72 hrs by MTT assay; format: functional; details: Homo sapiens

O=C(NC(CO)CO)c1ccccc1Nc1ccc2c(/C=C/c3ccccn3)n[nH]c2c1 gave an inhibition at 0.002 µM [1] of 8% and an inhibition at 0.0005 µM [2] of 48%.

In the case of CC1CCCCN1CCCNC(=O)c1ccccc1Nc1ccc2c(/C=C/c3ccccn3)n[nH]c2c1 (stereo not drawn), the inhibition at 0.002 µM [1] is reported as 15% and the inhibition at 0.0005 µM [2] is reported as 25%.

N#CC1CCC(CNC(=O)c2ccccc2Nc2ccc3c(/C=C/c4ccccn4)n[nH]c3c2)CC1 (stereo not drawn) gave an inhibition at 0.002 µM [1] of 66% and an inhibition at 0.0005 µM [2] of 36%.

In the case of COC[C@H]1CCCN1NC(=O)c1ccccc1Nc1ccc2c(/C=C/c3ccccn3)n[nH]c2c1, the inhibition at 0.002 µM [1] is reported as 11% and the inhibition at 0.0005 µM [2] is reported as 18%.

With CC(CNC(=O)c1ccccc1Nc1ccc2c(/C=C/c3ccccn3)n[nH]c2c1)c1ccccc1 (stereo not drawn) the inhibition at 0.002 µM [1] was 83% and the inhibition at 0.0005 µM [2] was 26%.

With CCOCCNC(=O)c1ccccc1Nc1ccc2c(/C=C/c3ccccn3)n[nH]c2c1 the inhibition at 0.002 µM [1] was 75% and the inhibition at 0.0005 µM [2] was 53%.

Cc1ccc(CNC(=O)c2ccccc2Nc2ccc3c(/C=C/c4ccccn4)n[nH]c3c2)cc1 showed an inhibition at 0.002 µM [1] of 92% and an inhibition at 0.0005 µM [2] of 20%.

In the case of O=C(NOc1ccccc1)c1ccccc1Nc1ccc2c(/C=C/c3ccccn3)n[nH]c2c1, the inhibition at 0.002 µM [1] is reported as 80% and the inhibition at 0.0005 µM [2] is reported as 27%.

With O=C(NC1CCc2ccccc21)c1ccccc1Nc1ccc2c(/C=C/c3ccccn3)n[nH]c2c1 (stereo not drawn) the inhibition at 0.002 µM [1] was 86% and the inhibition at 0.0005 µM [2] was 19%.

In the case of CCC(COC)NC(=O)c1ccccc1Nc1ccc2c(/C=C/c3ccccn3)n[nH]c2c1 (stereo not drawn), the inhibition at 0.002 µM [1] is reported as 65% and the inhibition at 0.0005 µM [2] is reported as 1%.

Compound NS(=O)(=O)c1ccc(CNC(=O)c2ccccc2Nc2ccc3c(/C=C/c4ccccn4)n[nH]c3c2)cc1 has an inhibition at 0.002 µM [1] of 13% and an inhibition at 0.0005 µM [2] of 1%.

With Cc1cc(C(=O)NNC(=O)c2ccccc2Nc2ccc3c(/C=C/c4ccccn4)n[nH]c3c2)[nH]n1 the inhibition at 0.002 µM [1] was 39% and the inhibition at 0.0005 µM [2] was 26%.

With NC(=O)NNC(=O)c1ccccc1Nc1ccc2c(/C=C/c3ccccn3)n[nH]c2c1 the inhibition at 0.002 µM [1] was 5% and the inhibition at 0.0005 µM [2] was 19%.

Compound CC(=O)NCCNC(=O)c1ccccc1Nc1ccc2c(/C=C/c3ccccn3)n[nH]c2c1 has an inhibition at 0.002 µM [1] of 27% and an inhibition at 0.0005 µM [2] of 15%.

Work on CC1(C)OCC(CNC(=O)c2ccccc2Nc2ccc3c(/C=C/c4ccccn4)n[nH]c3c2)O1 (stereo not drawn) yielded an inhibition at 0.002 µM [1] of 69% and an inhibition at 0.0005 µM [2] of 28%.

Compound Cc1ccc(N(C)NC(=O)c2ccccc2Nc2ccc3c(/C=C/c4ccccn4)n[nH]c3c2)nn1 has an inhibition at 0.002 µM [1] of -3% and an inhibition at 0.0005 µM [2] of 18%.

With CC1CC(NC(=O)c2ccccc2Nc2ccc3c(/C=C/c4ccccn4)n[nH]c3c2)CC(C)(C)C1 (stereo not drawn) the inhibition at 0.002 µM [1] was 31% and the inhibition at 0.0005 µM [2] was 25%.

Compound O=C(N[C@@H]1CC=CC[C@@H]1CO)c1ccccc1Nc1ccc2c(/C=C/c3ccccn3)n[nH]c2c1 has an inhibition at 0.002 µM [1] of 37% and an inhibition at 0.0005 µM [2] of 58%.

Work on C=C(C)CNC(=O)c1ccccc1Nc1ccc2c(/C=C/c3ccccn3)n[nH]c2c1 yielded an inhibition at 0.002 µM [1] of 110% and an inhibition at 0.0005 µM [2] of 65%.

In the case of O=CNNC(=O)c1ccccc1Nc1ccc2c(/C=C/c3ccccn3)n[nH]c2c1, the inhibition at 0.002 µM [1] is reported as 29% and the inhibition at 0.0005 µM [2] is reported as 28%.

Work on CCn1nccc1NC(=O)c1ccccc1Nc1ccc2c(/C=C/c3ccccn3)n[nH]c2c1 yielded an inhibition at 0.002 µM [1] of 2% and an inhibition at 0.0005 µM [2] of 26%.

C=CCNC(=O)c1ccccc1Nc1ccc2c(/C=C/c3ccccn3)n[nH]c2c1 gave an inhibition at 0.002 µM [1] of 86% and an inhibition at 0.0005 µM [2] of 30%.

O=C(O)CNC(=O)c1ccccc1Nc1ccc2c(/C=C/c3ccccn3)n[nH]c2c1 showed an inhibition at 0.002 µM [1] of 23% and an inhibition at 0.0005 µM [2] of 8%.

In the case of CC(C)C(NC(=O)c1ccccc1Nc1ccc2c(/C=C/c3ccccn3)n[nH]c2c1)C(C)C, the inhibition at 0.002 µM [1] is reported as -2% and the inhibition at 0.0005 µM [2] is reported as 18%.

With O=C(Nc1nccs1)c1ccccc1Nc1ccc2c(/C=C/c3ccccn3)n[nH]c2c1 the inhibition at 0.002 µM [1] was 94% and the inhibition at 0.0005 µM [2] was 33%.

For O=C(NCC(O)CO)c1ccccc1Nc1ccc2c(/C=C/c3ccccn3)n[nH]c2c1 (stereo not drawn), the inhibition at 0.002 µM [1] was 20% and the inhibition at 0.0005 µM [2] was 22%.

With COc1cccc(CNC(=O)c2ccccc2Nc2ccc3c(/C=C/c4ccccn4)n[nH]c3c2)c1 the inhibition at 0.002 µM [1] was 100% and the inhibition at 0.0005 µM [2] was 58%.

O=C(Nc1nc[nH]n1)c1ccccc1Nc1ccc2c(/C=C/c3ccccn3)n[nH]c2c1 gave an inhibition at 0.002 µM [1] of 22% and an inhibition at 0.0005 µM [2] of 19%.

For O=C(NC1CCCC1)c1ccccc1Nc1ccc2c(/C=C/c3ccccn3)n[nH]c2c1, the inhibition at 0.002 µM [1] was 96% and the inhibition at 0.0005 µM [2] was 43%.

Compound CNC(=O)CNC(=O)c1ccccc1Nc1ccc2c(/C=C/c3ccccn3)n[nH]c2c1 has an inhibition at 0.002 µM [1] of 26% and an inhibition at 0.0005 µM [2] of -1%.

Compound CN1CCN(CCCNC(=O)c2ccccc2Nc2ccc3c(/C=C/c4ccccn4)n[nH]c3c2)CC1 has an inhibition at 0.002 µM [1] of 4% and an inhibition at 0.0005 µM [2] of 0%.

In the case of CC1(C)CC(NC(=O)c2ccccc2Nc2ccc3c(/C=C/c4ccccn4)n[nH]c3c2)C(C)(C)N1O (stereo not drawn), the inhibition at 0.002 µM [1] is reported as 8% and the inhibition at 0.0005 µM [2] is reported as 15%.

With CN(C)CCCCCCNC(=O)c1ccccc1Nc1ccc2c(/C=C/c3ccccn3)n[nH]c2c1 the inhibition at 0.002 µM [1] was 22% and the inhibition at 0.0005 µM [2] was 42%.

CCCCCCCCNC(=O)c1ccccc1Nc1ccc2c(/C=C/c3ccccn3)n[nH]c2c1 showed an inhibition at 0.002 µM [1] of 16% and an inhibition at 0.0005 µM [2] of 26%.

Compound CN(CCCNC(=O)c1ccccc1Nc1ccc2c(/C=C/c3ccccn3)n[nH]c2c1)c1ccccc1 has an inhibition at 0.002 µM [1] of 25% and an inhibition at 0.0005 µM [2] of 18%.

With O=C(N[C@H]1CC[C@H](O)CC1)c1ccccc1Nc1ccc2c(/C=C/c3ccccn3)n[nH]c2c1 the inhibition at 0.002 µM [1] was 6% and the inhibition at 0.0005 µM [2] was 23%.

Cc1cnc(NC(=O)c2ccccc2Nc2ccc3c(/C=C/c4ccccn4)n[nH]c3c2)s1 showed an inhibition at 0.002 µM [1] of 92% and an inhibition at 0.0005 µM [2] of 20%.

With O=C(Nc1nc2ccccc2[nH]1)c1ccccc1Nc1ccc2c(/C=C/c3ccccn3)n[nH]c2c1 the inhibition at 0.002 µM [1] was 43% and the inhibition at 0.0005 µM [2] was 18%.

In the case of O=C(NCCOCCO)c1ccccc1Nc1ccc2c(/C=C/c3ccccn3)n[nH]c2c1, the inhibition at 0.002 µM [1] is reported as 24% and the inhibition at 0.0005 µM [2] is reported as 10%.

Compound O=C(NCc1ccncc1)c1ccccc1Nc1ccc2c(/C=C/c3ccccn3)n[nH]c2c1 has an inhibition at 0.002 µM [1] of 58% and an inhibition at 0.0005 µM [2] of 34%.

O=C(NCC1(O)CCCCC1)c1ccccc1Nc1ccc2c(/C=C/c3ccccn3)n[nH]c2c1 showed an inhibition at 0.002 µM [1] of -19% and an inhibition at 0.0005 µM [2] of 26%.

O=C(NCCNc1ccccc1)c1ccccc1Nc1ccc2c(/C=C/c3ccccn3)n[nH]c2c1 showed an inhibition at 0.002 µM [1] of 89% and an inhibition at 0.0005 µM [2] of 19%.

NC(=O)c1ccccc1Nc1ccc2c(/C=C/c3ccccn3)n[nH]c2c1 showed an inhibition at 0.002 µM [1] of 30% and an inhibition at 0.0005 µM [2] of 9%.

With O=C(NCCCN1CCCC1)c1ccccc1Nc1ccc2c(/C=C/c3ccccn3)n[nH]c2c1 the inhibition at 0.002 µM [1] was 2% and the inhibition at 0.0005 µM [2] was 20%.

Work on CCOC(CCNC(=O)c1ccccc1Nc1ccc2c(/C=C/c3ccccn3)n[nH]c2c1)OCC yielded an inhibition at 0.002 µM [1] of 70% and an inhibition at 0.0005 µM [2] of 30%.

Compound COCCNC(=O)c1ccccc1Nc1ccc2c(/C=C/c3ccccn3)n[nH]c2c1 has an inhibition at 0.002 µM [1] of 60% and an inhibition at 0.0005 µM [2] of 21%.

Compound CC(C)CCC(C)NC(=O)c1ccccc1Nc1ccc2c(/C=C/c3ccccn3)n[nH]c2c1 (stereo not drawn) has an inhibition at 0.002 µM [1] of 44% and an inhibition at 0.0005 µM [2] of 6%.

CC(C)[C@H](CO)NC(=O)c1ccccc1Nc1ccc2c(/C=C/c3ccccn3)n[nH]c2c1 gave an inhibition at 0.002 µM [1] of -4% and an inhibition at 0.0005 µM [2] of 47%.

For CCC(C)CNC(=O)c1ccccc1Nc1ccc2c(/C=C/c3ccccn3)n[nH]c2c1 (stereo not drawn), the inhibition at 0.002 µM [1] was 84% and the inhibition at 0.0005 µM [2] was 24%.

Source: ChEMBL document CHEMBL3880421, “Indazole compounds and pharmaceutical compositions for inhibiting protein kinases, and methods for their use” (2003)
